Reference: PubChem BioAssay AID1745844 (Carcinogenic Potency Database (CPDB), 2022)
Values joined by “and” are separate entries in the source; they are usually repeats but may differ in a detail not shown here. Equal entries are not always repeated. Active and inactive are the calls of the source. No rule for the calls is given here.

Tested on: rodent lifetime carcinogenesis bioassay, tumor incidence TD50
Assay: carcinogenic potency in animals, long-term in vivo studies, CPDB compilation (AID 1745844)

ClC=C(Cl)Cl
TD50 (mouse, strain Swiss, males, inhaled, site: any site (literature study), lesion: several types, types named in the paper, dosed 78 weeks, study length 145 weeks): 8070 mg/kg/day
TD50 (mouse, strain Swiss, males, inhaled, site: liver, lesion: hepatoma, dosed 78 weeks, study length 145 weeks): 3910 mg/kg/day
TD50 (mouse, strain Swiss, males, inhaled, site: lung, lesion: one or several types, types not named, dosed 78 weeks, study length 145 weeks): 10100 mg/kg/day
TD50 (rat, strain ACI, females, by gavage, site: any site (literature study), lesion: several types, types named in the paper, dosed 103 weeks, study length 104 weeks): 61700 mg/kg/day
TD50 (rat, strain ACI, females, by gavage, site: kidney, lesion: adenocarcinoma, NOS + tubular-cell adenocarcinoma, dosed 103 weeks, study length 104 weeks): 7800 mg/kg/day
TD50 (rat, strain ACI, females, by gavage, site: kidney, lesion: adenocarcinoma, NOS + tubular-cell adenoma + tubular-cell adenocarcinoma, dosed 103 weeks, study length 104 weeks): 3760 mg/kg/day
TD50 (rat, strain ACI, males, by gavage, site: any site (literature study), lesion: several types, types named in the paper, dosed 103 weeks, study length 104 weeks): 820 mg/kg/day
TD50 (rat, strain ACI, males, by gavage, site: kidney, lesion: tubular-cell adenocarcinoma, dosed 103 weeks, study length 104 weeks): 12000 mg/kg/day
TD50 (rat, strain ACI, males, by gavage, site: liver, lesion: hepatocellular adenoma + hepatocellular carcinoma + neoplastic nodule, dosed 103 weeks, study length 104 weeks): 9400 mg/kg/day
TD50 (rat, strain August, females, by gavage, site: kidney, lesion: tubular-cell adenoma + tubular-cell adenocarcinoma, dosed 103 weeks, study length 104 weeks): 2240 mg/kg/day
TD50 (rat, strain August, males, by gavage, site: kidney, lesion: tubular-cell adenocarcinoma, dosed 103 weeks, study length 104 weeks): 10800 mg/kg/day
TD50 (rat, strain August, males, by gavage, site: kidney, lesion: tubular-cell adenoma + tubular-cell adenocarcinoma, dosed 103 weeks, study length 104 weeks): 3810 mg/kg/day
TD50 (rat, strain August, males, by gavage, site: liver, lesion: hepatocellular adenoma + hepatocellular carcinoma + neoplastic nodule, dosed 103 weeks, study length 104 weeks): 6440 mg/kg/day
TD50 (rat, strain August, males, by gavage, site: subcutaneous tissue, lesion: sarcoma, NOS + sarcoma, NOS, dosed 103 weeks, study length 104 weeks): 3730 mg/kg/day
TD50 (rat, strain Charles River CD (Sprague-Dawley), females, inhaled, site: kidney, lesion: tubular-cell adenocarcinoma, dosed 104 weeks, study length 107 weeks): 10700 mg/kg/day
TD50 (rat, strain Charles River CD (Sprague-Dawley), females, inhaled, site: liver, lesion: several types, types named in the paper, dosed 104 weeks, study length 107 weeks): 12300 mg/kg/day
TD50 (rat, strain Charles River CD (Sprague-Dawley), females, inhaled, site: mammary gland, lesion: fibroadenoma, dosed 104 weeks, study length 107 weeks): 982 mg/kg/day
TD50 (rat, strain Fischer 344, females, by gavage, site: any site (literature study), lesion: several types, types named in the paper, dosed 103 weeks, study length 103 weeks): 5710 mg/kg/day (inactive)
TD50 (rat, strain Fischer 344, females, by gavage, site: kidney, lesion: tubular-cell adenocarcinoma, dosed 103 weeks, study length 103 weeks): 23000 mg/kg/day
TD50 (rat, strain Fischer 344, females, by gavage, site: liver, lesion: hepatocellular adenoma + hepatocellular carcinoma + neoplastic nodule, dosed 103 weeks, study length 103 weeks): 9980 mg/kg/day
TD50 (rat, strain Fischer 344, males, by gavage, site: any site (literature study), lesion: several types, types named in the paper, dosed 103 weeks, study length 103 weeks): 2240 mg/kg/day
TD50 (rat, strain Fischer 344, males, by gavage, site: kidney, lesion: tubular-cell adenocarcinoma, dosed 103 weeks, study length 103 weeks): 3920 mg/kg/day
TD50 (rat, strain Fischer 344, males, by gavage, site: kidney, lesion: tubular-cell adenoma + tubular-cell adenocarcinoma, dosed 103 weeks, study length 103 weeks): 2780 mg/kg/day
TD50 (rat, strain Fischer 344, males, by gavage, site: liver, lesion: hepatocellular adenoma + hepatocellular carcinoma + neoplastic nodule, dosed 103 weeks, study length 103 weeks): 12200 mg/kg/day
TD50 (rat, strain Fischer 344, males, by gavage, site: peritoneum, lesion: mesothelioma, NOS + mesothelioma, malignant, dosed 103 weeks, study length 103 weeks): 1490 mg/kg/day
TD50 (rat, strain Fischer 344, males, by gavage, site: peritoneum, lesion: mesothelioma, malignant, dosed 103 weeks, study length 103 weeks): 1490 mg/kg/day
TD50 (rat, strain Han:WIST, females, inhaled, site: any site (literature study), lesion: benign tumor, dosed 78 weeks, study length 156 weeks): 2120 mg/kg/day (inactive)
carcinogen call (rat, strain Han:WIST, females, inhaled, site: any site (literature study), lesion: malignant tumor, dosed 78 weeks, study length 156 weeks): negative (inactive)
TD50 (rat, strain Han:WIST, females, inhaled, site: kidney, lesion: tubular-cell adenoma, dosed 78 weeks, study length 156 weeks): 5500 mg/kg/day (inactive)
carcinogen call (rat, strain Han:WIST, females, inhaled, site: liver, lesion: hepatocellular adenoma, dosed 78 weeks, study length 156 weeks): negative (inactive)
carcinogen call (rat, strain Han:WIST, males, inhaled, site: any site (literature study), lesion: benign tumor, dosed 78 weeks, study length 156 weeks): negative (inactive)
TD50 (rat, strain Han:WIST, males, inhaled, site: any site (literature study), lesion: malignant tumor, dosed 78 weeks, study length 156 weeks): 351 mg/kg/day (inactive)
TD50 (rat, strain Han:WIST, males, inhaled, site: kidney, lesion: tubular-cell adenocarcinoma, dosed 78 weeks, study length 156 weeks): 3850 mg/kg/day (inactive)
TD50 (rat, strain Han:WIST, males, inhaled, site: kidney, lesion: tubular-cell adenoma, dosed 78 weeks, study length 156 weeks): 10700 mg/kg/day (inactive)
carcinogen call (rat, strain Han:WIST, males, inhaled, site: liver, lesion: hepatocellular adenoma, dosed 78 weeks, study length 156 weeks): negative (inactive)
TD50 (rat, strain Marshall, females, by gavage, site: any site (literature study), lesion: several types, types named in the paper, dosed 103 weeks, study length 104 weeks): 709 mg/kg/day
TD50 (rat, strain Marshall, females, by gavage, site: kidney, lesion: tubular-cell adenocarcinoma, dosed 103 weeks, study length 104 weeks): 4110 mg/kg/day
TD50 (rat, strain Marshall, females, by gavage, site: kidney, lesion: tubular-cell adenoma + tubular-cell adenocarcinoma, dosed 103 weeks, study length 104 weeks): 4370 mg/kg/day
TD50 (rat, strain Marshall, males, by gavage, site: any site (literature study), lesion: several types, types named in the paper, dosed 103 weeks, study length 104 weeks): 199 mg/kg/day
TD50 (rat, strain Marshall, males, by gavage, site: kidney, lesion: tubular-cell adenocarcinoma, dosed 103 weeks, study length 104 weeks): 8000 mg/kg/day
TD50 (rat, strain Marshall, males, by gavage, site: kidney, lesion: tubular-cell adenoma + tubular-cell adenocarcinoma, dosed 103 weeks, study length 104 weeks): 5710 mg/kg/day
TD50 (rat, strain Marshall, males, by gavage, site: testis, lesion: interstitial-cell tumor + interstitial-cell tumor, malignant, dosed 103 weeks, study length 104 weeks): 153 mg/kg/day
TD50 (rat, strain Marshall, males, by gavage, site: testis, lesion: interstitial-cell tumor, malignant, dosed 103 weeks, study length 104 weeks): 6540 mg/kg/day
TD50 (rat, strain Osborne-Mendel, females, by gavage, site: adrenal gland, lesion: cortical adenoma, dosed 103 weeks, study length 104 weeks): 556 mg/kg/day
TD50 (rat, strain Osborne-Mendel, females, by gavage, site: any site (literature study), lesion: several types, types named in the paper, dosed 78 weeks, study length 110 weeks): 5620 mg/kg/day (inactive)
TD50 (rat, strain Osborne-Mendel, females, by gavage, site: any site (literature study), lesion: several types, types named in the paper, dosed 103 weeks, study length 104 weeks): 372 mg/kg/day
TD50 (rat, strain Osborne-Mendel, females, by gavage, site: kidney, lesion: tubular-cell adenoma, dosed 103 weeks, study length 104 weeks): 10700 mg/kg/day
TD50 (rat, strain Osborne-Mendel, females, by gavage, site: liver, lesion: hepatocellular adenoma + hepatocellular carcinoma + neoplastic nodule, dosed 103 weeks, study length 104 weeks): 3500 mg/kg/day
TD50 (rat, strain Osborne-Mendel, males, by gavage, site: any site (literature study), lesion: several types, types named in the paper, dosed 78 weeks, study length 110 weeks): 16000 mg/kg/day
TD50 (rat, strain Osborne-Mendel, males, by gavage, site: any site (literature study), lesion: several types, types named in the paper, dosed 103 weeks, study length 104 weeks): 1490 mg/kg/day
TD50 (rat, strain Osborne-Mendel, males, by gavage, site: kidney, lesion: tubular-cell adenocarcinoma, dosed 78 weeks, study length 110 weeks): 7220 mg/kg/day
TD50 (rat, strain Osborne-Mendel, males, by gavage, site: kidney, lesion: tubular-cell adenoma + tubular-cell adenocarcinoma, dosed 103 weeks, study length 104 weeks): 628 mg/kg/day
TD50 (rat, strain Osborne-Mendel, males, by gavage, site: kidney, lesion: tubular-cell adenoma, dosed 103 weeks, study length 104 weeks): 628 mg/kg/day
TD50 (rat, strain Osborne-Mendel, males, by gavage, site: liver, lesion: hepatocellular adenoma + hepatocellular carcinoma + neoplastic nodule, dosed 103 weeks, study length 104 weeks): 8950 mg/kg/day
TD50 (rat, strain Sprague-Dawley, females, inhaled, site: any site (literature study), lesion: several types, types named in the paper, dosed 104 weeks, study length 159 weeks): 3890 mg/kg/day
TD50 (rat, strain Sprague-Dawley, females, inhaled, site: kidney, lesion: several types, types named in the paper, dosed 104 weeks, study length 159 weeks): 41300 mg/kg/day
TD50 (rat, strain Sprague-Dawley, females, inhaled, site: kidney, lesion: tubular-cell adenocarcinoma, dosed 104 weeks, study length 159 weeks): 43200 mg/kg/day
TD50 (rat, strain Sprague-Dawley, females, inhaled, site: liver, lesion: angiosarcoma, dosed 104 weeks, study length 159 weeks): 8010 mg/kg/day
TD50 (rat, strain Sprague-Dawley, females, inhaled, site: liver, lesion: neoplastic nodule, dosed 104 weeks, study length 159 weeks): 9680 mg/kg/day
TD50 (rat, strain Sprague-Dawley, males, by gavage, site: all sites, lesion: leukemia, dosed 52 weeks, study length 140 weeks): 428 mg/kg/day
TD50 (rat, strain Sprague-Dawley, males, by gavage, site: any site (literature study), lesion: malignant tumor, dosed 52 weeks, study length 140 weeks): 818 mg/kg/day
TD50 (rat, strain Sprague-Dawley, males, inhaled, site: all sites, lesion: leukemia, dosed 104 weeks, study length 159 weeks): 5930 mg/kg/day and 2810 mg/kg/day
TD50 (rat, strain Sprague-Dawley, males, inhaled, site: kidney, lesion: tubular-cell adenocarcinoma, dosed 104 weeks, study length 159 weeks): 9490 mg/kg/day and 12400 mg/kg/day
TD50 (rat, strain Sprague-Dawley, males, inhaled, site: kidney, lesion: tubular-cell adenoma, dosed 104 weeks, study length 159 weeks): 29200 mg/kg/day
TD50 (rat, strain Sprague-Dawley, males, inhaled, site: liver, lesion: neoplastic nodule, dosed 104 weeks, study length 159 weeks): 30700 mg/kg/day
TD50 (rat, strain Sprague-Dawley, males, inhaled, site: mammary gland, lesion: one or several types, types not named, dosed 104 weeks, study length 159 weeks): 120 mg/kg/day
TD50 (rat, strain Sprague-Dawley, males, inhaled, site: testis, lesion: Leydig-cell tumor, dosed 104 weeks, study length 159 weeks): 557 mg/kg/day and 835 mg/kg/day
